PubChem BioAssay (NCI)
Several values for one entry are separate records, joined by “and”; a condition that tells them apart may be missing. Identical values can stand only once.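 Assay format: 96-well plates, 48-hour exposure. The concentration for 50% growth inhibition is given as GI50. TGI is the concentration that stops growth completely.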

How the values were obtained:
Test in all cases: NCI anticancer screen, dose series, 48 h
NCI-H226 lung = tested on: NCI-H226 lung
A549 NSCLC = tested on: A549 NSCLC
SK-OV-3 ovarian = tested on: SK-OV-3 ovarian
UACC-257 melanoma = tested on: UACC-257 melanoma
KM12 colon = tested on: KM12 colon
HT29 colon = tested on: HT29 colon
SW-620 colon = tested on: SW-620 colon
BT-549 breast = tested on: BT-549 breast
MDA-MB-435 = tested on: MDA-MB-435
MDA-MB-231 breast = tested on: MDA-MB-231 breast
RPMI-8226 leukemia = tested on: RPMI-8226 leukemia
HS 578T breast = tested on: HS 578T breast
U251 CNS = tested on: U251 CNS
OVCAR-3 ovarian = tested on: OVCAR-3 ovarian

COc1cccc(C2c3cc4c(cc3OC(NNS(=O)(=O)c3ccc(C)cc3)C2C)OCO4)c1OC (stereo not drawn)
TGI (NCI-H226 lung): 13.1 µM | TGI (A549 NSCLC): 11.4 µM | TGI (SK-OV-3 ovarian): 7.83 µM | TGI (UACC-257 melanoma): > 100 µM | TGI (KM12 colon): 13.5 µM | TGI (HT29 colon): 13.9 µM | TGI (SW-620 colon): > 100 µM | TGI (BT-549 breast): 36 µM | TGI (MDA-MB-435): > 100 µM | TGI (MDA-MB-231 breast): 27.6 µM | TGI (RPMI-8226 leukemia): 6.86 µM | TGI (HS 578T breast): 21.1 µM | TGI (U251 CNS): 16.9 µM | TGI (OVCAR-3 ovarian): 4.55 µM

CCC1(c2ccc(N3C(=O)c4cc(OC)c(OC)cc4C3=O)cc2)CCC(=O)NC1=O (stereo not drawn)
TGI (NCI-H226 lung): > 10 µM | TGI (A549 NSCLC): > 10 µM | TGI (SK-OV-3 ovarian): > 10 µM | TGI (UACC-257 melanoma): > 10 µM | TGI (KM12 colon): > 10 µM | TGI (HT29 colon): > 10 µM | TGI (SW-620 colon): > 10 µM | TGI (BT-549 breast): > 10 µM | TGI (MDA-MB-435): > 10 µM | TGI (MDA-MB-231 breast): > 10 µM | TGI (RPMI-8226 leukemia): > 10 µM | TGI (HS 578T breast): > 10 µM | TGI (U251 CNS): > 10 µM | TGI (OVCAR-3 ovarian): > 10 µM

Clc1ccc(CCN[C@H]2CCCC[C@H]2N2CCCC2)cc1Cl
TGI (NCI-H226 lung): 48.7 µM | TGI (A549 NSCLC): 89.6 µM | TGI (SK-OV-3 ovarian): 78.2 µM | TGI (UACC-257 melanoma): 28.5 µM | TGI (KM12 colon): 35.1 µM | TGI (HT29 colon): 49.9 µM | TGI (SW-620 colon): > 100 µM | TGI (BT-549 breast): 59.9 µM | TGI (MDA-MB-435): 43.8 µM | TGI (MDA-MB-231 breast): > 100 µM | TGI (RPMI-8226 leukemia): 97.1 µM | TGI (HS 578T breast): > 100 µM | TGI (U251 CNS): > 100 µM | TGI (OVCAR-3 ovarian): 65.2 µM

CC(C)=CCCC(C)CCOS(=O)C(F)(F)F (stereo not drawn)
TGI (NCI-H226 lung): 41.4 µM | TGI (A549 NSCLC): 72.1 µM | TGI (SK-OV-3 ovarian): > 100 µM | TGI (UACC-257 melanoma): 52.9 µM | TGI (KM12 colon): > 100 µM | TGI (HT29 colon): 28.5 µM | TGI (SW-620 colon): > 100 µM | TGI (BT-549 breast): 77.8 µM | TGI (MDA-MB-435): 37.1 µM | TGI (MDA-MB-231 breast): 61.4 µM | TGI (RPMI-8226 leukemia): 90.8 µM | TGI (HS 578T breast): 5.31 µM | TGI (U251 CNS): 22.9 µM | TGI (OVCAR-3 ovarian): 27.8 µM

CC(=O)c1ccc2c(c1)CC1(C2)Cc2cc3c(c(C(=O)O)c2C1)CCC3 (stereo not drawn)
TGI (NCI-H226 lung): > 100 µM | TGI (A549 NSCLC): > 100 µM | TGI (SK-OV-3 ovarian): > 100 µM | TGI (UACC-257 melanoma): > 100 µM | TGI (KM12 colon): > 100 µM | TGI (HT29 colon): > 100 µM | TGI (SW-620 colon): > 100 µM | TGI (BT-549 breast): > 100 µM | TGI (MDA-MB-435): > 100 µM | TGI (MDA-MB-231 breast): > 100 µM | TGI (RPMI-8226 leukemia): > 100 µM | TGI (HS 578T breast): > 100 µM | TGI (U251 CNS): > 100 µM | TGI (OVCAR-3 ovarian): > 100 µM

COc1ccc2c(c1)/C(=C\c1c(Cl)[nH]c3ccccc13)C(=O)N2
TGI (NCI-H226 lung): 70.8 µM | TGI (A549 NSCLC): 19 µM | TGI (SK-OV-3 ovarian): 9.87 µM | TGI (UACC-257 melanoma): 20.4 µM | TGI (KM12 colon): 15.1 µM | TGI (HT29 colon): 5.2 µM | TGI (SW-620 colon): 13.4 µM | TGI (BT-549 breast): 14.8 µM | TGI (MDA-MB-435): 3.82 µM | TGI (MDA-MB-231 breast): 26.5 µM | TGI (RPMI-8226 leukemia): 16.3 µM | TGI (HS 578T breast): 9.88 µM | TGI (U251 CNS): 13.2 µM | TGI (OVCAR-3 ovarian): 23 µM

COC(=O)CCNC(=O)OCc1ccccc1
TGI (NCI-H226 lung): > 100 µM | TGI (A549 NSCLC): > 100 µM | TGI (SK-OV-3 ovarian): > 100 µM | TGI (UACC-257 melanoma): > 100 µM | TGI (KM12 colon): > 100 µM | TGI (HT29 colon): > 100 µM | TGI (SW-620 colon): > 100 µM | TGI (BT-549 breast): > 100 µM | TGI (MDA-MB-435): > 100 µM | TGI (MDA-MB-231 breast): > 100 µM | TGI (RPMI-8226 leukemia): > 100 µM | TGI (HS 578T breast): > 100 µM | TGI (U251 CNS): > 100 µM | TGI (OVCAR-3 ovarian): > 100 µM

CCOC(=O)NC(Nc1ccc(F)cc1)(C(=O)OCC)C(F)(F)F (stereo not drawn)
TGI (NCI-H226 lung): > 100 µM | TGI (A549 NSCLC): > 100 µM | TGI (SK-OV-3 ovarian): > 100 µM | TGI (UACC-257 melanoma): > 100 µM | TGI (KM12 colon): > 100 µM | TGI (HT29 colon): > 100 µM | TGI (SW-620 colon): > 100 µM | TGI (BT-549 breast): > 100 µM | TGI (MDA-MB-435): > 100 µM | TGI (MDA-MB-231 breast): > 100 µM | TGI (RPMI-8226 leukemia): > 100 µM | TGI (HS 578T breast): > 100 µM | TGI (U251 CNS): > 100 µM | TGI (OVCAR-3 ovarian): > 100 µM

COc1ccc(COC(=O)NCC(=O)NC(C)C(=O)NC(Cc2ccccc2)C(=O)OCc2ccccc2)cc1 (stereo not drawn)
TGI (NCI-H226 lung): 55.9 µM and 85.6 µM | GI50 (A549 NSCLC): 18.8 µM and > 100 µM | TGI (A549 NSCLC): 41.2 µM and > 100 µM | GI50 (SK-OV-3 ovarian): 22.9 µM and > 100 µM | TGI (SK-OV-3 ovarian): 42.5 µM and > 100 µM | GI50 (UACC-257 melanoma): 15.7 µM and > 100 µM | TGI (UACC-257 melanoma): 29.8 µM and > 100 µM | GI50 (KM12 colon): 62.8 µM and 23.9 µM | TGI (KM12 colon): > 100 µM and 46.3 µM | TGI (HT29 colon): 86.4 µM and 33.1 µM | TGI (SW-620 colon): > 100 µM | GI50 (BT-549 breast): 22.1 µM and > 100 µM | TGI (BT-549 breast): 48.1 µM and > 100 µM | TGI (MDA-MB-435): 47.3 µM and 71.7 µM | TGI (MDA-MB-231 breast): 46.2 µM and 68.3 µM | TGI (RPMI-8226 leukemia): > 100 µM and 57.1 µM | TGI (HS 578T breast): 70.3 µM and 63.9 µM | TGI (U251 CNS): 44.3 µM and 47.3 µM | TGI (OVCAR-3 ovarian): 64.2 µM and 50.7 µM

CN(CCCNC(=O)c1cn(C)c2c1Cc1ccccc1-2)CCCNC(=O)c1cn(C)c2c1Cc1ccccc1-2
TGI (NCI-H226 lung): 41.4 µM | TGI (A549 NSCLC): 32.3 µM | TGI (SK-OV-3 ovarian): 32.6 µM | TGI (UACC-257 melanoma): 18.9 µM | TGI (KM12 colon): 26.9 µM | TGI (HT29 colon): 5.7 µM | TGI (SW-620 colon): 18.5 µM | TGI (BT-549 breast): 39.2 µM | TGI (MDA-MB-435): 5.16 µM | TGI (MDA-MB-231 breast): 27.4 µM | TGI (RPMI-8226 leukemia): > 100 µM | TGI (HS 578T breast): 25.2 µM | TGI (U251 CNS): 20.2 µM | TGI (OVCAR-3 ovarian): 31.3 µM

O=C1Nc2nccnc2C(=O)N2CCC[C@@H]12
TGI (NCI-H226 lung): > 100 µM | TGI (A549 NSCLC): > 100 µM | TGI (SK-OV-3 ovarian): > 100 µM | TGI (UACC-257 melanoma): > 100 µM | TGI (KM12 colon): > 100 µM | TGI (HT29 colon): > 100 µM | TGI (SW-620 colon): > 100 µM | TGI (BT-549 breast): > 100 µM | TGI (MDA-MB-435): > 100 µM | TGI (MDA-MB-231 breast): > 100 µM | TGI (RPMI-8226 leukemia): > 100 µM | TGI (HS 578T breast): > 100 µM | TGI (U251 CNS): > 100 µM | TGI (OVCAR-3 ovarian): > 100 µM

CN(C)c1c(C2OC(CO)C(O)C2O)c(=O)c1=O (stereo not drawn)
TGI (NCI-H226 lung): > 100 µM | TGI (A549 NSCLC): > 100 µM | TGI (SK-OV-3 ovarian): > 100 µM | TGI (UACC-257 melanoma): > 100 µM | TGI (KM12 colon): > 100 µM | TGI (HT29 colon): > 100 µM | TGI (SW-620 colon): > 100 µM | TGI (BT-549 breast): > 100 µM | TGI (MDA-MB-435): > 100 µM | TGI (MDA-MB-231 breast): > 100 µM | TGI (RPMI-8226 leukemia): > 100 µM | TGI (HS 578T breast): > 100 µM | TGI (U251 CNS): > 100 µM | TGI (OVCAR-3 ovarian): > 100 µM
